Experiments:
db/db mice = test: Antidyslipidemic activity in db/db mice; format: in vivo, mouse (C57BL/KsBom-db); conditions: for % Fall in lipid levels HDL: serum HDL-cholesterol; for % Fall in lipid levels Chol.: serum cholesterol; for % Fall in lipid levels TG: serum triglycerides
Text: The db/db mouse is a well-characterized model of […]. The background for the db/db mouse is the C57BL/Ks strain. The major deficiency of the C57BL/KsBom-db mouse (db/db) is lack of a functional leptin receptor. This leads to defective leptin signaling and a complete lack of feedback from leptin. […] The db/db mouse develops NIDDM from around week 10. The disease is stable until week 20, where destruction of pancreatic β-cells can be recognized clinically as decreasing levels of plasma insulin and very severe hyperglycemia. The male mice are more diabetic than female and will normally die earlier. The advantage of using male mice for experimental purposes is that the fluctuations in plasma parameters are less than in the females where the estrogen cycle affects the clinical diabetes mellitus. The optimal age of db/db mice used for experiments will be from week 12 to 18 when they have developed NIDDM with diabetic dyslipidemia but still have functional β-cells in the pancreas. C57BL/KsBom-db mice 12-18 weeks, 40-50 g bred in the animal house of CDRI, Lucknow. 10 male mice were used in the experiments. The mice were housed in groups of 5 individuals in a room controlled for temperature (23±2° C.) and 12/12 hours light/dark cycle (lights on at 6.00 am). Body weight was measured daily from day 1 to day 10. All animals had free access to fresh water and to normal chow except on the days of the postprandial protocol day 6 and during the overnight fast before the OGTT on day 10. Blood glucose was checked every morning up till day 5. On day 6 postprandial protocol was employed, in this method blood glucose was checked at −0.30 min and 0 h. Test compounds were given to the treatment group whereas control group received only gum acacia (1.0%); the blood glucose was again checked at 1, 2, 3, 4 and 6 h post test compound treatment. Finally on day 10 an oral glucose tolerance test (OGTT) was performed after an overnight fasting. Blood glucose was measured at −0.30 min and test drugs were fed, blood glucose was again measured at 0.0 min post treatment, at this juncture glucose solution was given at a dose of 3 gm/kg to all the groups including control group; the profile of blood glucose was checked at 30 min, 60 min, 90 min and 120 min post glucose administration. Quantitative glucose tolerance of each animal was calculated by Area Under Curve (AUC) method (Prism Software). Comparing the AUC of experimental and control groups determined the percentage antihyperglycemic activity. Statistical comparison was made by Dunnett's test.
Cholesterol and triglycerides were estimated using the same procedures as given above.
HDL-Cholesterol was estimated using the kit provided by the Roche Diagnostics. Cholestest N HDL is a liquid reagent that directly measures the HDL-cholesterol concentration in serum by a new method that is based on the selective solubilising effect of proprietary detergent to the different lipoproteins. In the assay system, only HDL is solubilised by a special detergent; other lipoproteins are not disturbed. After HDL is selectively disrupted, HDL cholesterol is measured enzymatically (Gordon, T.; Casstelli, W. P.; Hjortland, M. C.; Kannel, W. B.; Dawber, T. R. High density lipoproteins as a protective factor against coronary heart disease, Am. J. Med. 1977, 62, 707-714.).

[1] = test system: streptozotocin-induced diabetic rats; test: Sucrose-challenged streptozotocin-induced diabetic rats (STZ-S), antihyperglycemic activity; format: in vivo, rat (Sprague Dawley); conditions: for activity in STZ model: summary statement
Procedure: Male albino rats of Sprague Dawley strain of body weight […] were selected for this study. Streptozotocin (Sigma, USA) was dissolved in 100 mM citrate buffer pH 4.5 and calculated amount of the fresh solution was injected to overnight fasted rats (45 mg/kg) intraperitoneally. Blood glucose level was checked 48 h later by glucostrips and animals showing blood glucose values between 144 to 270 mg/dl (8 to 15 mM) were included in the experiment and termed diabetic. The diabetic animals were divided into groups consisting of five to six animals in each group. Animals of experimental groups were administered suspension of the desired test samples orally (made in 1.0% gum acacia) at a dose of 100-mg/kg-body weight. Animals of control group were given an equal amount of 1.0% gum acacia. A sucrose load of 2.5-g/kg body weight was given after 30 minutes of compound administration. After 30 minutes of post sucrose load blood glucose level was again checked by glucostrips at 30, 60, 90, 120, 180, 240, 300 min and at 24 h, respectively. Animals not found diabetic after 24 hours post treatment of the test sample were not considered and omitted from the calculations and termed as non-responders. […] Food but not water was withheld from the cages during the experimentation. Comparing the AUC of experimental and control groups determined the percent antihyperglycemic activity. Statistical comparison between groups was made by Student's ‘t’ test.

sucrose loaded rats = test: Sucrose loaded rat model (SLM), antihyperglycemic activity; format: in vivo, rat (Charles Foster/Wistar); conditions: for inhibition in vivo at 100 mg/kg: Rattus norvegicus, 2 h, 100 mg/kg oral, sucrose load 10.0 g/kg, AUC vs control, 30-120 min, read-out: % Fall in blood glucose levels SLM; for activity in SLM model: summary statement
Procedure: Male albino rats of Charles Foster/Wistar strain of average body weight 160±20 g were selected for this study. The blood glucose level of each animal was checked by glucometer using glucostrips (Boehringer Mannheim) after 16 h starvation. Animals showing blood glucose levels between 3.33 to 4.44 mM (60 to 80 mg/dl) were divided into groups of five to six animals in each. Animals of experimental group were administered suspension of the desired synthetic compound orally (made in 1.0% gum acacia) at a dose of 100-mg/kg-body weight. Animals of control group were given an equal amount of 1.0% gum acacia. A sucrose load (10.0 g/kg) was given to each animal orally exactly after 30 min post administration of the test sample/vehicle. Blood glucose profile of each rat was again determined at 30, 60, 90 and 120 min post administration of sucrose by glucometer. Food but not water was withheld from the cages during the course of experimentation. Quantitative glucose tolerance of each animal was calculated by Area Under Curve (AUC) method (Prism Software). Comparing the AUC of experimental and control groups determined the percentage antihyperglycemic activity. Statistical comparison was made by Dunnett's test.

[2] = 100 mg/kg oral, sucrose load 2.5 g/kg, AUC vs control

SMILES | % Fall in lipid levels HDL (db/db mice) | % Fall in lipid levels Chol. (db/db mice) [%] | % Fall in lipid levels TG (db/db mice) | % Fall in blood glucose levels STZ-S 24 h [1, 2] [%] | activity in STZ model [1] | inhibition in vivo at 100 mg/kg (sucrose loaded rats) [%] | activity in SLM model (sucrose loaded rats) | % Fall in blood glucose levels STZ-S 5 h ([1]; 100 mg/kg oral, sucrose load 2.5 g/kg, AUC vs control, 5 h) [%]
COc1ccc(/C=C/C(=O)c2ccc(OCC(O)CN3CCN(c4ccccc4)CC3)cc2)cc1OC (centres unmarked) [Compound 18, 3,4-Dimethoxy-4′-[2-hydroxy-3-(4-phenylpiperazin-1-yl)-propoxy]-chalcone] | 11.8% | 1.36 | +5.20% | 20.3 | significant results | 15.4 | significant results | –
O=C1NC(=O)/C(=C\c2ccc(OCCCCCOc3cccc(C(=O)/C=C/c4ccc5c(c4)OCO5)c3)cc2)S1 [Compound 46, 3,4-Methylenedioxy-3′-{5-[4-(thiazolidin-2,4-dione-5-ylidinemethyl)-phenoxy]-pentyloxy}-chalcone] | 21.4% | 18.9 | 6.76% | 7.18 | – | 13.4 | – | 11.8
CC(C)(C)NCC(O)COc1ccc(C(=O)/C=C/c2ccc3c(c2)OCO3)cc1 (centres unmarked) [Compound 34, 4′-[^3-tert-Butylamino-2-hydroxy-propoxy]-3,4-methylenedioxy-chalcone] | +1.76% | 40.3 | +7.44% | 23.0 | significant results | 21.1 | significant results | –
